# Test results as given in PubChem BioAssay (NCI).
#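 Protocol summary: plate cells (96-well), add compound at 5 concentrations, incubate 48 h, interpolate endpoints linearly. GI50 is the concentration that inhibits growth by half. Definition used: TGI = concentration required for complete inhibition of growth.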
# How the values were obtained:
# Assay in all cases: DTP human tumour cell line panel, 48 h
# 786-0 renal = test system: 786-0 renal
# A498 renal = test system: A498 renal
# A549 NSCLC = test system: A549 NSCLC
# ACHN renal = test system: ACHN renal
# BT-549 breast = test system: BT-549 breast
# CAKI-1 renal = test system: CAKI-1 renal
# CCRF-CEM leukemia = test system: CCRF-CEM leukemia
# COLO 205 colon = test system: COLO 205 colon
# DU-145 prostate = test system: DU-145 prostate
# EKVX NSCLC = test system: EKVX NSCLC
# HCC-2998 colon = test system: HCC-2998 colon
# HCT-116 colon = test system: HCT-116 colon
# HCT-15 colon = test system: HCT-15 colon
# HL-60(TB) leukemia = test system: HL-60(TB) leukemia
# HOP-62 NSCLC = test system: HOP-62 NSCLC
# HS 578T breast = test system: HS 578T breast
# HT29 colon = test system: HT29 colon
# IGROV1 ovarian = test system: IGROV1 ovarian
# K-562 leukemia = test system: K-562 leukemia
# KM12 colon = test system: KM12 colon
# LOX IMVI melanoma = test system: LOX IMVI melanoma
# M14 melanoma = test system: M14 melanoma
# MALME-3M melanoma = test system: MALME-3M melanoma
# MCF7 breast = test system: MCF7 breast
# MDA-MB-231 breast = test system: MDA-MB-231 breast
# MDA-MB-435 = test system: MDA-MB-435
# MOLT-4 leukemia = test system: MOLT-4 leukemia
# NCI-H226 lung = test system: NCI-H226 lung
# NCI-H23 lung = test system: NCI-H23 lung
# NCI-H460 lung = test system: NCI-H460 lung
# NCI-H522 lung = test system: NCI-H522 lung
# NCI/ADR-RES ovarian = test system: NCI/ADR-RES ovarian
# OVCAR-3 ovarian = test system: OVCAR-3 ovarian
# OVCAR-5 ovarian = test system: OVCAR-5 ovarian
# OVCAR-8 ovarian = test system: OVCAR-8 ovarian
# PC-3 prostate = test system: PC-3 prostate
# RPMI-8226 leukemia = test system: RPMI-8226 leukemia
# RXF 393 renal = test system: RXF 393 renal
# SF-268 CNS = test system: SF-268 CNS
# SF-295 CNS = test system: SF-295 CNS
# SF-539 CNS = test system: SF-539 CNS
# SK-MEL-28 melanoma = test system: SK-MEL-28 melanoma
# SK-MEL-5 melanoma = test system: SK-MEL-5 melanoma
# SK-OV-3 ovarian = test system: SK-OV-3 ovarian
# SN12C renal = test system: SN12C renal
# SNB-19 CNS = test system: SNB-19 CNS
# SNB-75 CNS = test system: SNB-75 CNS
# SR leukemia = test system: SR leukemia
# SW-620 colon = test system: SW-620 colon
# T-47D breast = test system: T-47D breast
# TK-10 renal = test system: TK-10 renal
# U251 CNS = test system: U251 CNS
# UACC-257 melanoma = test system: UACC-257 melanoma
# UACC-62 melanoma = test system: UACC-62 melanoma
# UO-31 renal = test system: UO-31 renal
compound,measurement,setting,value
CC(C(=O)O)c1cccc(Oc2ccccc2)c1 (stereo not given),GI50,786-0 renal,> 100 µM
same,TGI,786-0 renal,> 100 µM
same,GI50,A498 renal,> 100 µM
same,TGI,A498 renal,> 100 µM
same,GI50,A549 NSCLC,> 100 µM
same,TGI,A549 NSCLC,> 100 µM
same,GI50,ACHN renal,> 100 µM
same,TGI,ACHN renal,> 100 µM
same,GI50,BT-549 breast,> 100 µM
same,TGI,BT-549 breast,> 100 µM
same,GI50,CAKI-1 renal,> 100 µM
same,TGI,CAKI-1 renal,> 100 µM
same,GI50,CCRF-CEM leukemia,> 100 µM
same,TGI,CCRF-CEM leukemia,> 100 µM
same,GI50,COLO 205 colon,> 100 µM
same,TGI,COLO 205 colon,> 100 µM
same,GI50,DU-145 prostate,> 100 µM
same,TGI,DU-145 prostate,> 100 µM
same,GI50,EKVX NSCLC,> 100 µM
same,TGI,EKVX NSCLC,> 100 µM
same,GI50,HCC-2998 colon,> 100 µM
same,TGI,HCC-2998 colon,> 100 µM
same,GI50,HCT-116 colon,> 100 µM
same,TGI,HCT-116 colon,> 100 µM
same,GI50,HCT-15 colon,> 100 µM
same,TGI,HCT-15 colon,> 100 µM
same,GI50,HL-60(TB) leukemia,> 100 µM
same,TGI,HL-60(TB) leukemia,> 100 µM
same,GI50,HOP-62 NSCLC,> 100 µM
same,TGI,HOP-62 NSCLC,> 100 µM
same,GI50,HS 578T breast,> 100 µM
same,TGI,HS 578T breast,> 100 µM
same,GI50,HT29 colon,> 100 µM
same,TGI,HT29 colon,> 100 µM
same,GI50,IGROV1 ovarian,> 100 µM
same,TGI,IGROV1 ovarian,> 100 µM
same,GI50,K-562 leukemia,> 100 µM
same,TGI,K-562 leukemia,> 100 µM
same,GI50,KM12 colon,> 100 µM
same,TGI,KM12 colon,> 100 µM
same,GI50,LOX IMVI melanoma,> 100 µM
same,TGI,LOX IMVI melanoma,> 100 µM
same,GI50,M14 melanoma,> 100 µM
same,TGI,M14 melanoma,> 100 µM
same,GI50,MALME-3M melanoma,> 100 µM
same,TGI,MALME-3M melanoma,> 100 µM
same,GI50,MCF7 breast,> 100 µM
same,TGI,MCF7 breast,> 100 µM
same,GI50,MDA-MB-231 breast,> 100 µM
same,TGI,MDA-MB-231 breast,> 100 µM
same,GI50,MDA-MB-435,> 100 µM
same,TGI,MDA-MB-435,> 100 µM
same,GI50,MOLT-4 leukemia,> 100 µM
same,TGI,MOLT-4 leukemia,> 100 µM
same,GI50,NCI-H226 lung,> 100 µM
same,TGI,NCI-H226 lung,> 100 µM
same,GI50,NCI-H23 lung,> 100 µM
same,TGI,NCI-H23 lung,> 100 µM
same,GI50,NCI-H460 lung,> 100 µM
same,TGI,NCI-H460 lung,> 100 µM
same,GI50,NCI-H522 lung,> 100 µM
same,TGI,NCI-H522 lung,> 100 µM
same,GI50,NCI/ADR-RES ovarian,> 100 µM
same,TGI,NCI/ADR-RES ovarian,> 100 µM
same,GI50,OVCAR-3 ovarian,> 100 µM
same,TGI,OVCAR-3 ovarian,> 100 µM
same,GI50,OVCAR-5 ovarian,> 100 µM
same,TGI,OVCAR-5 ovarian,> 100 µM
same,GI50,OVCAR-8 ovarian,> 100 µM
same,TGI,OVCAR-8 ovarian,> 100 µM
same,GI50,PC-3 prostate,> 100 µM
same,TGI,PC-3 prostate,> 100 µM
same,GI50,RPMI-8226 leukemia,> 100 µM
same,TGI,RPMI-8226 leukemia,> 100 µM
same,GI50,RXF 393 renal,> 100 µM
same,TGI,RXF 393 renal,> 100 µM
same,GI50,SF-268 CNS,> 100 µM
same,TGI,SF-268 CNS,> 100 µM
same,GI50,SF-295 CNS,> 100 µM
same,TGI,SF-295 CNS,> 100 µM
same,GI50,SF-539 CNS,> 100 µM
same,TGI,SF-539 CNS,> 100 µM
same,GI50,SK-MEL-28 melanoma,> 100 µM
same,TGI,SK-MEL-28 melanoma,> 100 µM
same,GI50,SK-MEL-5 melanoma,> 100 µM
same,TGI,SK-MEL-5 melanoma,> 100 µM
same,GI50,SK-OV-3 ovarian,> 100 µM
same,TGI,SK-OV-3 ovarian,> 100 µM
same,GI50,SN12C renal,> 100 µM
same,TGI,SN12C renal,> 100 µM
same,GI50,SNB-19 CNS,> 100 µM
same,TGI,SNB-19 CNS,> 100 µM
same,GI50,SNB-75 CNS,> 100 µM
same,TGI,SNB-75 CNS,> 100 µM
same,GI50,SR leukemia,> 100 µM
same,TGI,SR leukemia,> 100 µM
same,GI50,SW-620 colon,> 100 µM
same,TGI,SW-620 colon,> 100 µM
same,GI50,T-47D breast,> 100 µM
same,TGI,T-47D breast,> 100 µM
same,GI50,TK-10 renal,> 100 µM
same,TGI,TK-10 renal,> 100 µM
same,GI50,U251 CNS,> 100 µM
same,TGI,U251 CNS,> 100 µM
same,GI50,UACC-257 melanoma,> 100 µM
same,TGI,UACC-257 melanoma,> 100 µM
same,GI50,UACC-62 melanoma,> 100 µM
same,TGI,UACC-62 melanoma,> 100 µM
same,GI50,UO-31 renal,> 100 µM
same,TGI,UO-31 renal,> 100 µM
